In US10766888B1, “HMOX1 inducers” (Mitobridge Inc., priority 2019, dated 2020):
≈ marks a conversion by molar mass, not a printed value.

What was measured:
[1] = tested on: Human Heme Oxygenase-1 (HMOX-1); assay: ELISA assay to measure human heme oxygenase-1 (HMOX-1) in HepG2 lysate; assay type: cell-based; details: for EC50: human HMOX1 protein level in HepG2 lysate, * = average of 2 or more EC50 determinations, NA = Not Active, read-out: EC50
Protocol: Example 143. ELISA Assay to Measure Human Heme Oxygenase-1 (HMOX-1) in HepG2 lysate
Reagents and Technical Notes:
ELISA capture antibody, standard HO-1, detection antibody and streptavidin HRP were supplied in the DuoSet IC Human total HO-1 ELISA from R&D systems (DYC3776-2). The substrate cocktail was KPL LumiGLO reserve Chemiluminescent Substrate (54-71-00). PBS was Corning Cellgro Cell Culture (21-040-CV). 10×PBS+0.05% tween20 (PBST) was from KPL.
All incubations of the plate were at room temperature (20° C.) in a closed drawer.
The ELISA plate was processed manually. All loadings were with a multichannel pipet. Plates were emptied by shaking into the sink and tapping onto paper towels to remove any remaining reagent. Plate washing was accomplished by loading all wells with PBS+0.05% tween20 (PBST) using a squirt bottle, shaking the PBST out and tapping the plate onto paper towels.
Preparation of the ELISA Plate:
• 1. anti-HO-1 capture antibody was 1440 μg/ml after reconstitution in PBS. This antibody was diluted to 8 μg/ml in PBS and 50 μl per well was added to a 384 well greiner “lumitrac 200” plate. Incubated overnight. • 2. The plate was emptied and 100 μl PBS+1% BSA added to all wells. Incubated 90 minutes at room temperature. Preparation of HepG2 Lysate: • 1. Cells were cultured in a 96-well tissue culture plate washed with PBS and then the plate frozen at −70° C. overnight. Plates were allowed to warm to ice temperature in an ice bucket. 20 μl of PBS, 0.5% Triton X100, 1 mM EDTA with 1×HALT™ protease inhibitors was added to each well and the plates incubated on ice for 1 hour. • 2. The lysates were frozen at −20° C. overnight. Measurement of HMOX1 (“HO-1”) • 1. In a polypropylene 384 well plate, human HO-1 (after reconstitution in PBS+0.5% Triton+1 mM EDTA) was serially diluted from 20 ng/ml 2-fold in PBS+0.5% triton-X100, 1 mM EDTA to make a 12-point standard curve including a zero point. • 2. In a polypropylene 96 well plate, HepG2 lysate was diluted 1 to 20 in Diluent #4 from DUOSET kit in which the assay standard is also diluted. • 3. The PBS+1% BSA was emptied from the ELISA plate and 30 μl of all samples and standards were added (duplicates recommended). The plate was incubated 90 minutes. • 4. Emptied plate and washed 4 times with PBST. • 5. Diluted HO-1 detection antibody to 200 ng/ml in PBS+1% BSA and added 30 μl to all wells. Incubated 90 minutes. • 6. Emptied plate and washed 4 times with PBST. • 7. Added 30 μl streptavidin HRP at 1/200 in PBS+1% BSA (stock streptavidin concentration not specified) to all wells. Incubated 30 minutes. • 8. Emptied plate and washed 4 times with PBST. • 9. Diluted Lumiglo reserve reagent two parts buffer to one part lumiglo substrate. Added 30 μl to all wells. Incubated 5 minutes. • 10. Measured chemiluminescence on spectramax M5 using 150 ms integration.
Table 1 below lists EC50 and fold changes of human HMOX1 protein levels relative to DMSO control upon treatment with representative compounds.

Kinetic solubility = assay type: physicochemical; details: Dulbecco's phosphate buffer saline (DPBS), aqueous buffer, kinetic from dmso stock, DPBS pH 7.4, 25° C., 200 μM test compound
Protocol: Example 144. Kinetic Solubility
10 μL of 10 mM DMSO stock solution were aliquotted to 490 μL of DMSO solution and separately 490 μL of Dulbecco's phosphate buffer saline, DPBS, pH 7.4 solution in 1.2 mL 96-well plates in duplicate. Final concentration was 200 μM of the test compound. Samples were incubated at 25° C. with shaking at 200 rpm for 16 h. Samples were centrifuged at 3500 rpm for 20 min at 25° C., and supernatant was submitted for HPLC analysis.
Kinetic solubility was measured using the following equation: […]

| SMILES | EC50 [1] | solubility at 16 h (Kinetic solubility) | Maximum Fold induction ([1]; fold change of human HMOX1 protein level relative to DMSO control, HepG2) |
| --- | --- | --- | --- |
| CC(C)C(N)C(=O)OCCOCCNC(=O)c1ccc2c(c1)nc(Nc1nc3ccccc3o1)n2C.Cl (racemic) [Example 30, 2-(2-(2-(benzo[d]oxazol-2-ylamino)-1-methyl-1H-benzo[d]imidazole-5-carboxamido)ethoxy)ethyl DL-valinate hydrochloride] | 3500 nM | 3.2 µM | – |
| CC(=O)N1CCc2nc(Nc3nc4cc(C(=O)NCCOCCO)ccc4n3C)sc2C1 [Example 10, 2-((5-acetyl-4,5,6,7-tetrahydrothiazolo[5,4-c]pyridin-2-yl)amino)-N-(2-(2-hydroxyethoxy)ethyl)-1-methyl-1H-benzo[d]imidazole-5-carboxamide] | – | 8.6 µM (≈ 3.94 µg/mL) | – |
| Cn1c(Nc2nc3ccccc3o2)nc2cc(C(=O)NCC(O)CO)ccc21 (centres unmarked) [Example 24, 2-(benzo[d]oxazol-2-ylamino)-N-(2,3-dihydroxypropyl)-1-methyl-1H-benzo[d]imidazole-5-carboxamide] | – | 12.4 µM (≈ 4.73 µg/mL) | – |
| Cn1c(Nc2nc3ccccc3o2)nc2cc(C(=O)NCCOCC(C)(C)O)ccc21 [Example 27, 2-(benzo[d]oxazol-2-ylamino)-N-(2-(2-hydroxy-2-methylpropoxy)ethyl)-1-methyl-1H-benzo[d]imidazole-5-carboxamide] | – | 10.6 µM (≈ 4.49 µg/mL) | – |
| Cn1c(Nc2nc3ccccc3o2)nc2cc(C(=O)NCCOCC(=O)O)ccc21 [Example 29, 2-(2-(2-(benzo[d]oxazol-2-ylamino)-1-methyl-1H-benzo[d]imidazole-5-carboxamido)ethoxy)acetic acid] | – | 19.3 µM (≈ 7.9 µg/mL) | – |
| COCCNC(=O)c1ccc2c(c1)nc(Nc1nc3ccc(C(F)(F)F)cc3o1)n2C [Example 32, N-(2-methoxyethyl)-1-methyl-2-((6-(trifluoromethyl)benzo[d]oxazol-2-yl)amino)-1H-benzo[d]imidazole-5-carboxamide] | 500 nM | 1.4 µM (≈ 0.607 µg/mL) | – |
| CC(O)CNC(=O)c1ccc2c(c1)nc(Nc1nc3ccc(C(F)(F)F)cc3o1)n2C (centres unmarked) [Example 35, N-(2-hydroxypropyl)-1-methyl-2-((6-(trifluoromethyl)benzo[d]oxazol-2-yl)amino)-1H-benzo[d]imidazole-5-carboxamide] | 1200 nM | < 2 µM | – |
| Cn1c(Nc2nc3ccc(C(F)(F)F)cc3o2)nc2cc(C(=O)NCCN3CCCC3)ccc21 [Example 36, 1-methyl-N-(2-(pyrrolidin-1-yl)ethyl)-2-((6-(trifluoromethyl)benzo[d]oxazol-2-yl)amino)-1H-benzo[d]imidazole-5-carboxamide] | 1300 nM | 2.8 µM (≈ 1.32 µg/mL) | – |
| Cn1c(Nc2nc3ccc(C(F)(F)F)cc3o2)nc2cc(C(=O)NCCN3CCCCC3)ccc21 [Example 37, 1-methyl-N-(2-(piperidin-1-yl)ethyl)-2-((6-(trifluoromethyl)benzo[d]oxazol-2-yl)amino)-1H-benzo[d]imidazole-5-carboxamide] | – | < 2 µM | – |
| CC(O)COCCNC(=O)c1ccc2c(c1)nc(Nc1nc3ccc(C(F)(F)F)cc3o1)n2C (centres unmarked) [Example 38, N-(2-(2-hydroxypropoxy)ethyl)-1-methyl-2-((6-(trifluoromethyl)benzo[d]oxazol-2-yl)amino)-1H-benzo[d]imidazole-5-carboxamide] | 1300 nM | < 2 µM | – |
| Cn1c(Nc2nc3ccc(C(F)(F)F)cc3o2)nc2cc(C(=O)NCC(O)CO)ccc21 (centres unmarked) [Example 39, N-(2,3-dihydroxypropyl)-1-methyl-2-((6-(trifluoromethyl)benzo[d]oxazol-2-yl)amino)-1H-benzo[d]imidazole-5-carboxamide] | 950 nM | 2.1 µM (≈ 0.944 µg/mL) | – |
| CN(C)CC(=O)NCCNC(=O)c1ccc2c(c1)nc(Nc1nc3ccc(C(F)(F)F)cc3o1)n2C [Example 40, N-(2-(2-(dimethylamino)acetamido)ethyl)-1-methyl-2-((6-(trifluoromethyl)benzo[d]oxazol-2-yl)amino)-1H-benzo[d]imidazole-5-carboxamide] | 690 nM | 0.5 µM (≈ 0.252 µg/mL) | – |
| Cn1c(Nc2nc3ccc(C(F)(F)F)cc3o2)nc2cc(C(=O)NCCOCC(=O)O)ccc21 [Example 41, 2-(2-(1-methyl-2-((6-(trifluoromethyl)benzo[d]oxazol-2-yl)amino)-1H-benzo[d]imidazole-5-carboxamido)ethoxy)acetic acid] | 4800 nM | 13.8 µM (≈ 6.59 µg/mL) | – |
| Cn1c(Nc2nc3ccc(C(F)(F)F)cc3o2)nc2cc(C(=O)NCCOCC(C)(C)O)ccc21 [Example 42, N-(2-(2-hydroxy-2-methylpropoxy)ethyl)-1-methyl-2-((6-(trifluoromethyl)benzo[d]oxazol-2-yl)amino)-1H-benzo[d]imidazole-5-carboxamide] | 2300 nM | 3.6 µM (≈ 1.77 µg/mL) | 29 fold |
| Cn1c(Nc2nc3cc(C(F)(F)F)ccc3o2)nc2cc(C(=O)NCCOCCO)ccc21 [Example 43, N-(2-(2-hydroxyethoxy)ethyl)-1-methyl-2-((5-(trifluoromethyl)benzo[d]oxazol-2-yl)amino)-1H-benzo[d]imidazole-5-carboxamide] | 1300 nM | 8 µM (≈ 3.71 µg/mL) | – |
| COCCNC(=O)c1ccc2c(c1)nc(Nc1nc3ccc(OC(F)(F)F)cc3o1)n2C [Example 45, N-(2-methoxyethyl)-1-methyl-2-((6-(trifluoromethoxy)benzo[d]oxazol-2-yl)amino)-1H-benzo[d]imidazole-5-carboxamide] | 640 nM | 0.2 µM (≈ 0.0899 µg/mL) | – |
| Cn1c(Nc2nc3ccc(OC(F)(F)F)cc3o2)nc2cc(C(=O)Nc3cn[nH]c3)ccc21 [Example 46, 1-methyl-N-(1H-pyrazol-4-yl)-2-((6-(trifluoromethoxy)benzo[d]oxazol-2-yl)amino)-1H-benzo[d]imidazole-5-carboxamide] | 2200 nM | < 5 µM | – |
| Cn1cc(NC(=O)c2ccc3c(c2)nc(Nc2nc4ccc(OC(F)(F)F)cc4o2)n3C)cn1 [Example 50, 1-methyl-N-(1-methyl-1H-pyrazol-4-yl)-2-((6-(trifluoromethoxy)benzo[d]oxazol-2-yl)amino)-1H-benzo[d]imidazole-5-carboxamide] | – | 4 µM (≈ 1.89 µg/mL) | – |
| Cn1c(Nc2nc3ccc(C(F)(F)F)nc3o2)nc2cc(C(=O)NCCO)ccc21 [Example 113, N-(2-hydroxyethyl)-1-methyl-2-((5-(trifluoromethyl)oxazolo[5,4-b]pyridin-2-yl)amino)-1H-benzo[d]imidazole-5-carboxamide] | – | 9.1 µM (≈ 3.83 µg/mL) | – |
| Cn1c(Nc2nc3nccnc3s2)nc2cc(C(=O)NCCOCCO)ccc21 [Example 114, N-(2-(2-hydroxyethoxy)ethyl)-1-methyl-2-(thiazolo[4,5-b]pyrazin-2-ylamino)-1H-benzo[d]imidazole-5-carboxamide] | – | 12.2 µM (≈ 5.04 µg/mL) | – |
| Cn1c(Nc2nc3ccc(OC4CCOCC4)cc3o2)nc2cc(C(=O)NCCOCCO)ccc21 [Example 138, N-(2-(2-hydroxyethoxy)ethyl)-1-methyl-2-((6-((tetrahydro-2H-pyran-4-yl)oxy)benzo[d]oxazol-2-yl)amino)-1H-benzo[d]imidazole-5-carboxamide] | 2000 nM | – | – |
| Cn1c(Nc2nc3ccccc3o2)nc2cc(C(O)C(F)(F)F)ccc21 (centres unmarked) [Example 142, 1-(2-(benzo[d]oxazol-2-ylamino)-1-methyl-1H-benzo[d]imidazol-5-yl)-2,2,2-trifluoroethan-1-ol] | 3300 nM | – | – |
